From US5538993A, “Certain tetrahydrocannabinol-7-oic acid derivatives” (priority 1991, dated 1996)

Columns and labels:
[1] = tested on: Arachidonic Acid-Induced Paw Edema; assay: Inhibition of arachidonic acid-induced paw edema; type: in vivo, CD-1 female mice
Text: The induction of paw edema in rodents by injection of arachidonic acid has been used as an experimental model for inflammation [Calhoun, W., et al., Agents and Actions, 21, 306 (1987)]. Prior administration of non-steroidalanti-inflammatory drugs (NSAIDs) in many cases leads to a dose related inhibition of the edematous response which may be considered a predictor of clinical efficacy.
(§1) The conditions were based on those reported previously [Calhoun et al., ibid.]. […] PAF (1.0 μq) or arachidonic acid (1.0 mg) dissolved in 50 μl of 5% ethanol in saline, were injected s.c. into the plantar surface of the right hind paw of CD-1 female mice (20-25 g) obtained from Charles River Labs. The mice were under ether anesthesia during this procedure. The volume of the right foot was measured to the level of the lateral malleotis by water displacement before treatment and 15 min after PAF injection or 30 min after archidonate injection. The change in paw volume was calculated for each mouse and the significance for each group was determined by a paired t test analysis.

PAF-Induced Paw Edema = assay: Inhibition of PAF-induced paw edema; type: in vivo, CD-1 female mice; settings: for Inhibition of PAF-Induced Paw Edema: vs vehicle treated controls, 15 min after PAF
Procedure: A second model, in which edema is induced by platelet activating factor (PAF), was used to evaluate activity.
as §1

peritoneal leukocytes = assay: Leukocyte adhesion assay (peritoneal cells after oral dosing); type: in vivo, female CD-1 mice; settings: cells collected 90 min after dosing; for number of adhering cells: ± S.D
Procedure: Leukocytes are thought to be major contributors to the inflammatory response and their ability in this regard is reflected by their adhesiveness to a variety of substrates [Audette, C. A., et al., ibid.] Sci., 47, 753 (1990)].
The details of the leukocytes adhesion assay have been previously reported [Audette et al., ibid.]. In brief, peritoneal cells from female CD-1 mice (20-25 g) were collected at 90 min following oral administration of the drug or vehicle (50 μl peanut oil). Cells from each treatment group (N=3) were pooled and equal numbers aliquoted into six culture dish wells (1.9 cm^2 area). After incubation for 18-20 hours, non-adhering cells were removed and the remaining cell monolayer quantitated by DNA measurement.

mouse hot plate test = assay: Hot plate test for antinociception (55° C.); type: in vivo; settings: 90 min before test
Procedure: In the hot plate test for analgesia an aluminum surface was maintained at 55±1° C. by circulating water through passages in the metal. A clear plastic cylinder 18 cm in diameter and 26 cm high was placed on the surface to prevent escape. The end point was taken when the mouse either performed a hind paw lick or jumped off the surface; in no case were the animals kept for more than 30 secs on the plate. Mice were never used more than one time; control values were always measured at 11 a.m. and test values at 2 p.m. The drugs were administered orally 90 min before the hot plate test. The percent change in response time (latency) was calculated by comparing the mean of the control values with the mean of the test values and statistical signficance determined by a paired tetest analysis using software (Statview, 512) from Brainpower, Inc., Calabasas, Calif.

cataleptic response = assay: Cataleptic effects, ring test; type: in vivo, mouse; settings: 5 min test period, ± SD
Procedure: The lack of CNS activity for the compounds described herein may be seen from the data shown in Table V. This was measured by the so-called "ring test" [Pertwee, R. G., et al., J. Pharmacol., 46, 753 (1972)] in which the cataleptic effects of cannabinoids can be quantitated. The compounds produced little or no response when compared with the parent drug.
The cataleptic response was measured using the ring test. Mice were placed on a horizontal wire ring 5.5 cm in diameter, which was attached to a 16 cm vertical rod. The hind paws and fore paws were placed at opposite sides of the ring. It is important that the ambient temperature is maintained at 30° C. and that the environment be free of auditory stimuli and bright lights. The criteria for immobility are detailed by Pertwee. The response is calculated as the fraction of time the mouse is immobile over a 5 min. test period. Measurements were always done between 2 and 4 p.m. and the animals were used only once.

[2] = tested on: Picrotoxin induced lethality; assay: Protection against picrotoxin induced lethality; type: in vivo, Balb/c male mice; settings: drug 10 mg/kg, 120 min before picrotoxin (8 mg/kg)
Procedure: (§2) The present compounds are active in several tests generally used to indicate neuroprotection.
(§3) Balb/c male mice were administered with the drug 90 min before treatment with NMDA (125 mq/kg) or 120 min before picrotoxin (8 mg/kg) in emulsion, s.c. The survival rate shown in Table VI indicates number of survivors out of total number of animals used.

[3] = tested on: N-methyl-D-aspartate (NMDA) induced lethality; assay: Protection against NMDA induced lethality; type: in vivo, Balb/c male mice; settings: drug 10 mg/kg, 90 min before NMDA
Procedure: as §2, §3

forebrain ischemia = assay: Protection against forebrain ischemia (unilateral occlusion); type: in vivo; settings: mongolian gerbils, result in words
Text: as §2

intraocular pressure = assay: Reduction of intraocular pressure (anti-glaucoma); type: in vivo, rabbits; settings: 50 μl drop of a 1% emulsion into rabbit eye
Procedure: Reduction of intraocular pressure in rabbits was determined by the addition of a 50 μl drop of a 1% emulsion of the cannabinoid into the rabbit eye. This test is a measure of anti-glaucoma activity.

[4] = previously shown; cited from earlier work

| Structure (SMILES) | Inhibition of PAF-Induced Paw Edema (PAF-Induced Paw Edema; 0.5 mg/kg) [%] | adhering cells, percent of control (peritoneal leukocytes; 0.05 mg/kg oral) | number of adhering cells (peritoneal leukocytes; 0.05 mg/kg oral) | adhering cells, percent of control (peritoneal leukocytes; 0.10 mg/kg oral) | number of adhering cells (peritoneal leukocytes; 0.10 mg/kg oral) | adhering cells, percent of control (peritoneal leukocytes; 0.50 mg/kg oral) | number of adhering cells (peritoneal leukocytes; 0.50 mg/kg oral) | adhering cells, percent of control (peritoneal leukocytes; 1.00 mg/kg oral) | number of adhering cells (peritoneal leukocytes; 1.00 mg/kg oral) | percent change in latency (mouse hot plate test; 0.25 mg/kg oral) [%] | percent change in latency (mouse hot plate test; 0.50 mg/kg oral) [%] | percent change in latency (mouse hot plate test; 1.0 mg/kg oral) [%] | Survival rate (survivors out of total) [2] | Survival rate (survivors out of total) [3] | protection against forebrain ischemia (forebrain ischemia) | also measured |
| --- | --- | --- | --- | --- | --- | --- | --- | --- | --- | --- | --- | --- | --- | --- | --- | --- |
| CCCCCCC(C)(C)c1cc(O)c2c(c1)OC(C)(C)[C@H]1CC=C(C(=O)O)C[C@H]21 [HU-235] | 60.1 | 102% of control | 1.29 ± 0.05 number of adhering cells × 10^-6 | 110% of control | 1.38 ± 0.17 number of adhering cells × 10^-6 | 116% of control | 1.46 ± 0.05 number of adhering cells × 10^-6 | 56% of control | 0.70 ± 0.12 number of adhering cells × 10^-6 | 61.5 | 61.5 | 51.7 | 8/12 | 7/10 | shown to protect against forebrain ischemia | Inhibition of Arachidonic Acid-Induced Paw Edema ([1]; 0.050 mg/kg, vs vehicle treated controls, 30 min after arachidonate): 42.1%; reduction of arachidonic acid paw edema ([1]; result in words): effective in reducing paw edema; Inhibition of PAF-Induced Paw Edema (PAF-Induced Paw Edema; 0.05 mg/kg): 44.4%; Inhibition of PAF-Induced Paw Edema (PAF-Induced Paw Edema; 0.10 mg/kg): 38.7%; Inhibition of PAF-Induced Paw Edema (PAF-Induced Paw Edema; 0.25 mg/kg): 31.9%; activity in PAF-induced edema (PAF-Induced Paw Edema; result in words): active; adhering cells, percent of control (peritoneal leukocytes; 0.01 mg/kg oral): 106% of control; number of adhering cells (peritoneal leukocytes; 0.01 mg/kg oral): 1.34 ± 0.14 number of adhering cells × 10^-6; percent change in latency (mouse hot plate test; 0.02 mg/kg oral): 10.3%; percent change in latency (mouse hot plate test; 0.05 mg/kg oral): 61.7%; percent change in latency (mouse hot plate test; 0.10 mg/kg oral): 49.5%; percent change in latency (mouse hot plate test; 2.0 mg/kg oral): 14.7%; cataleptic response (fraction of time immobile) (cataleptic response; 0.25 mg/kg): 12.3 ± 10.3; cataleptic response (fraction of time immobile) (cataleptic response; 0.5 mg/kg): 13.8 ± 7.9; cataleptic response (fraction of time immobile) (cataleptic response; 1.0 mg/kg): 10.4 ± 10.6; cataleptic response (fraction of time immobile) (cataleptic response; 4.0 mg/kg): 8.7 ± 5.6; reduction of intraocular pressure (intraocular pressure): Significant reduction |
| CCCCCCC(C)(C)c1cc(O)c2c(c1)OC(C)(C)[C@H]1CC=C(CO)C[C@H]21 [HU-211, 7-hydroxy-delta-6-tetrahydrocannabinoldimethylheptyl, reference compound] | 37.5 | 124% of control | 1.09 ± 0.08 number of adhering cells × 10^-6 | 50% of control | 0.44 ± 0.03 number of adhering cells × 10^-6 | 73% of control | 0.64 ± 0.06 number of adhering cells × 10^-6 | 67% of control | 0.59 ± 0.06 number of adhering cells × 10^-6 | 30.0 | 72.5 | -10.2 | 6/10 | 11/16 | shown to protect against forebrain ischemia | Inhibition of PAF-Induced Paw Edema (PAF-Induced Paw Edema; 1.0 mg/kg): 21.9%; analgetic activity [4]: analgetic; anti-NMDA activity [4]: anti-NMDA; antiemetic activity [4]: entiemetic |
